In article PMC8126724, “Infant-Associated Bifidobacterial β-Galactosidases and Their Ability to Synthesize Galacto-Oligosaccharides” (Frontiers in Microbiology, 2021):

Assays:
BgaE = test system: T1, BgaE; experiment: o-nitrophenol release, A420; type: biochemical, Bifidobacterium longum subsp. longum; settings: 0.1 M sodium acetate pH 6.5, 40 °C; unit mM, not in table
T1 construct: gene B8809_0611; tetramer
Description: o-nitrophenol release, A420 on BgaE

BgaD = test system: T2, BgaD; experiment: o-nitrophenol release, A420; type: biochemical, Bifidobacterium longum subsp. longum; settings: 0.1 M sodium acetate pH 6.5, 40 °C; unit mM, not in table
T2 construct: gene B8809_0415; His6-tagged, expressed in Lactococcus lactis (pNZ8150), Ni-purified; trimer
Description: o-nitrophenol release, A420 on BgaD

O=[N+]([O-])c1ccccc1O[C@@H]1O[C@H](CO)[C@H](O)[C@H](O)[C@H]1O [ONPG] was tested, and the Km (BgaE) was 11.1 mM and the Km (BgaD) was 17 mM.
